Data as given in US8426437B2, “Pyrroloquinoline derivatives and their use as protein kinases inhibitors” (Pierre Fabre Medicament, priority 2005, dated 2013).
Counter-ions that a name gives are not always drawn.

Target: T1, RET (Homo sapiens, UniProt P07949)
T1 construct: purchased Upstate 14-570MG
Experiment: Inhibition of RET kinase activity, recombinant RET method (Kinase-Glo)
Format: biochemical
Conditions: RET 2 μg/ml, poly-EY4 substrate, 20 μM ATP, two hours at 30° C.
Outline: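 Recombinant RET at 2 μg/ml in 20 mM MOPS/NaOH pH 7.0, 1 mM EDTA, 5% glycerol, 0.01% Brij35, 0.1% 2-mercaptoethanol, 1 mg/ml BSA; compounds 10 nM–30 μM final.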

T1 sequence (P07949 29-1114): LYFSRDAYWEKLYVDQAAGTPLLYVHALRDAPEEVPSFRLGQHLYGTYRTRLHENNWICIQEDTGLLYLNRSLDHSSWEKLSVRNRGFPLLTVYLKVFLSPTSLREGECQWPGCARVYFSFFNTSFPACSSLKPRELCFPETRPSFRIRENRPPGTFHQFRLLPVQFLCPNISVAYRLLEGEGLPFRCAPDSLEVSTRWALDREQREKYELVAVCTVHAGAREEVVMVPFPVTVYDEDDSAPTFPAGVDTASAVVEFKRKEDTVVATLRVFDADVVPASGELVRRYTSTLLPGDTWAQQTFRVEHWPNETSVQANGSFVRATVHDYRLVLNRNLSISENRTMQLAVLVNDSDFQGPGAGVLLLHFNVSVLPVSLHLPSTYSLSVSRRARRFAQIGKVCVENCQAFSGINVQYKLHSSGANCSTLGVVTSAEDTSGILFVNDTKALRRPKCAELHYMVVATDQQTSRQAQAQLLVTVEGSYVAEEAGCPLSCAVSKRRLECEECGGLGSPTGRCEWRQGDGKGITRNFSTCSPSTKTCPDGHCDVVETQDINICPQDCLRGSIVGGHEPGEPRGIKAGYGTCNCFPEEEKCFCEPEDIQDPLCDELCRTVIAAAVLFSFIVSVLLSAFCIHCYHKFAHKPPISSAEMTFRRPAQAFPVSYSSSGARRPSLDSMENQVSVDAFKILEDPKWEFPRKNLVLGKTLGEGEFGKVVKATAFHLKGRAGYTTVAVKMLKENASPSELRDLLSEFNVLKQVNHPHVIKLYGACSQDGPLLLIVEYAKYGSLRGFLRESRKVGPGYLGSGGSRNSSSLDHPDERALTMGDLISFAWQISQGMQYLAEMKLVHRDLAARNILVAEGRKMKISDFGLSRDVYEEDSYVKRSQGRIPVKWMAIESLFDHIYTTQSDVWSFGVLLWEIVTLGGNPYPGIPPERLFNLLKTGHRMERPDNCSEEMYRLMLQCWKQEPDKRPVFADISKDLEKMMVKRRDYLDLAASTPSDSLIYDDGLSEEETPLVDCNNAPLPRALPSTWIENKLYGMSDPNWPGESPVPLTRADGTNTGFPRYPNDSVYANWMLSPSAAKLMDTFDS

IC50 [nM]	Compound
10000 to 100000	NC(=O)c1c[nH]c2c(=O)[nH]c3ccccc3c12 [Compound 90, 4-Oxo-4,5-dihydro-3H-pyrrolo[2,3-c]quinoline-1-carboxamide]
100 to 1000	CCOC(=O)c1c[nH]c2c(=O)[nH]c3ccc(N(C)S(C)(=O)=O)cc3c12 [Compound 59, 8-(Methanesulfonyl-methyl-amino)-4-oxo-4,5-dihydro-3H-pyrrolo[2,3-c]quinoline-1-ethyl carboxylate]
< 100	CCCOC(=O)c1c[nH]c2c(=O)[nH]c3cc(F)c(S(=O)(=O)N(C)CCN(C)C)cc3c12 [Compound 184, 8-[(2-Dimethylamino-ethyl)-methyl-sulfamoyl]-7-fluoro-4-oxo-4,5-dihydro-3H-pyrrolo[2,3-c]quinoline-1-propyl carboxylate]
100 to 1000	CCOC(=O)c1c[nH]c2c(=O)[nH]c3ccc(-c4cc(S(C)(=O)=O)ccc4N)cc3c12 [Compound 251, 8-(2-Amino-5-methanesulfonyl-phenyl)-4-oxo-4,5-dihydro-3H-pyrrolo[2,3-c]quinoline-1-ethyl carboxylate]
10000 to 100000	CCOC(=O)c1c[nH]c2c(=O)[nH]c3ccc(F)cc3c12 [Compound 99, 8-Fluoro-4-oxo-4,5-dihydro-3H-pyrrolo[2,3-c]quinoline-1-ethyl carboxylate]
100 to 1000	CCOC(=O)c1c[nH]c2c(=O)[nH]c3ccc(CCc4ccccc4)cc3c12 [Compound 207, 4-Oxo-8-phenethyl-4,5-dihydro-3H-pyrrolo[2,3-c]quinoline-1-ethyl carboxylate]
1000 to 10000	CCOC(=O)c1c[nH]c2c(=O)[nH]c3ccc(-c4cccnc4)cc3c12 [Compound 258, 4-Oxo-8-pyridin-3-yl-4,5-dihydro-3H-pyrrolo[2,3-c]quinoline-1-ethyl carboxylate]
1000 to 10000	CCOC(=O)c1c[nH]c2c(=O)[nH]c3ccc(C#C[Si](C)(C)C)cc3c12 [Compound 200, 4-Oxo-8-trimethylsilanylethynyl-4,5-dihydro-3H-pyrrolo[2,3-c]quinoline-1-ethyl carboxylate]
100 to 1000	CCCOC(=O)c1c[nH]c2c(=O)[nH]c3ccc(S(=O)(=O)N(C)CC#N)cc3c12 [Compound 128, 8-(Cyanomethyl-methyl-sulfamoyl)-4-oxo-4,5-dihydro-3H-pyrrolo[2,3-c]quinoline-1-propyl carboxylate]
1000 to 10000	CCOC(=O)c1c[nH]c2c(=O)[nH]c3ccc(-c4csc(Nc5ccccc5Cl)n4)cc3c12 [Compound 272, 8-[2-(2-Chlorophenylamino)-thiazol-4-yl]-4-oxo-4,5-dihydro-3H-pyrrolo[2,3-c]quinoline-1-ethyl carboxylate]
1000 to 10000	CCOC(=O)c1c[nH]c2c(=O)[nH]c3cc(OC)c(I)cc3c12 [Compound 214, 8-Iodo-7-methoxy-4-oxo-4,5-dihydro-3H-pyrrolo[2,3-c]quinoline-1-ethyl carboxylate]
1000 to 10000	CCCOC(=O)c1c[nH]c2c(=O)[nH]c3ccc(S(=O)(=O)N4CC[C@@H](N(C)C)C4)cc3c12 [Compound 172]
100 to 1000	CCOC(=O)c1c[nH]c2c(=O)[nH]c3ccc(NS(=O)(=O)c4ccc(Br)cc4)cc3c12 [Compound 46, 8-(4-Bromo-benzenesulfonylamino)-4-oxo-4,5-dihydro-3H-pyrrolo[2,3-c]quinoline-1-ethyl carboxylate]
< 100	CCCOC(=O)c1c[nH]c2c(=O)[nH]c3ccc(S(=O)(=O)N(C)CCN(C)C)cc3c12 [Compound 136, 8-[(2-Dimethylamino-ethyl)-methyl-sulfamoyl]-4-oxo-4,5-dihydro-3H-pyrrolo[2,3-c]quinoline-1-propyl carboxylate]

The next lines start with the compound.

Compound	IC50 [nM]
CCOC(=O)c1c[nH]c2c(=O)[nH]c3ccc(-c4cccc(NC(=O)OC(C)(C)C)c4)cc3c12 [Compound 233, 8-(3-tert-Butoxycarbonylaminophenyl)-4-oxo-4,5-dihydro-3H-pyrrolo[2,3-c]quinoline-1-ethyl carboxylate]	1000 to 10000
CCCOC(=O)c1c[nH]c2c(=O)[nH]c3ccc(S(=O)(=O)N(CCOCc4ccccc4)C4CC4)cc3c12 [Compound 181, 8-[(2-Benzyloxy-ethyl)-cyclopropyl-sulfamoyl]-4-oxo-4,5-dihydro-3H-pyrrolo[2,3-c]quinoline-1-propyl carboxylate]	1000 to 10000
CCOC(=O)c1c[nH]c2c(=O)[nH]c3ccc(S(=O)(=O)Nc4ccc(N)cc4)cc3c12 [Compound 20, 8-(4-Aminophenylsulfamoyl)-4-oxo-4,5-dihydro-3H-pyrrolo[2,3-c]quinoline-1-ethyl carboxylate]	< 100
CCOC(=O)c1c[nH]c2c(=O)[nH]c3ccc(-c4ccc5c(ccn5C(=O)OC(C)(C)C)c4)cc3c12 [Compound 253, 8-(1-tert-Butoxycarbonyl-1H-indol-5-yl)-4-oxo-4,5-dihydro-3H-pyrrolo[2,3-c]quinoline-1-ethyl carboxylate]	1000 to 10000
CCOC(=O)c1c[nH]c2c(=O)[nH]c3ccc(C(=O)CN4CCOCC4)cc3c12 [Compound 218, 8-(2-Morpholin-4-yl-acetyl)-4-oxo-4,5-dihydro-3H-pyrrolo[2,3-c]quinoline-ethyl carboxylate]	1000 to 10000
CCCNC(=O)c1c[nH]c2c(=O)[nH]c3ccc(S(=O)(=O)N(C)C)cc3c12 [Compound 109, N-Propyl-8-dimethylsulfamoyl-4-oxo-4,5-dihydro-3H-pyrrolo[2,3-c]quinoline-1-carboxamide]	10000 to 100000
C#CCN(CCN(C(=O)OC(C)(C)C)C(C)C)S(=O)(=O)c1ccc2[nH]c(=O)c3[nH]cc(C(=O)OCCC)c3c2c1 [Compound 159, 8-{[2-(tert-Butoxycarbonyl-isopropyl-amino)-ethyl]-prop-2-ynyl-sulfamoyl}-4-oxo-4,5-dihydro-3H-pyrrolo[2,3-c]quinoline-1-propyl carboxylate]	1000 to 10000
COC(=O)c1c[nH]c2c(=O)[nH]c3ccccc3c12 [Compound 73, 4-Oxo-4,5-dihydro-3H-pyrrolo[2,3-c]quinoline-1-methyl carboxylate]	1000 to 10000
CCOC(=O)c1c[nH]c2c(=O)[nH]c3ccc(C#CCN4CCOCC4)cc3c12 [Compound 205, 8-(3-Morpholin-4-yl-prop-1-ynyl)-4-oxo-4,5-dihydro-3H-pyrrolo[2,3-c]quinoline-1-ethyl carboxylate]	100 to 1000
CCOC(=O)c1c[nH]c2c(=O)[nH]c3ccc(S(N)(=O)=O)cc3c12 [Compound 96, 4-Oxo-8-sulfamoyl-4,5-dihydro-3H-pyrrolo[2,3-c]quinoline-1-ethyl carboxylate]	100 to 1000
CCCOC(=O)c1c[nH]c2c(=O)[nH]c3ccc(S(=O)(=O)N(C)CCNC)cc3c12 [Compound 139, 8-[Methyl-(2-methylamino-ethyl)-sulfamoyl]-4-oxo-4,5-dihydro-3H-pyrrolo[2,3-c]quinoline-1-propyl carboxylate hydrochloride]	< 100
CCOC(=O)c1c[nH]c2c(=O)[nH]c3ccc(NS(=O)(=O)c4ccccc4Cl)cc3c12 [Compound 42, 8-(2-Chloro-benzenesulfonylamino)-4-oxo-4,5-dihydro-3H-pyrrolo[2,3-c]quinoline-1-ethyl carboxylate]	10000 to 100000
CN(C(=O)OC(C)(C)C)C1CCN(S(=O)(=O)c2ccc3[nH]c(=O)c4[nH]cc(C(=O)O)c4c3c2)C1 (stereo not drawn) [Compound 170, 8-[3-(tert-Butoxycarbonyl-methyl-amino)-pyrrolidine-1-sulfonyl]-4-oxo-4,5-dihydro-3H-pyrrolo[2,3-c]quinoline-1-carboxylic acid]	10000 to 100000
